From patent publication EP4775580A1, “COMPOUND, PHARMACEUTICAL COMPOSITION COMPRISING SAME, AND USE THEREOF” (Euregen Biopharma Co., Ltd., priority 2023, dated 2025)

Legend:
[1] = system: MV-4-11 cells; assay: Antiproliferative activity against MV-4-11 cells (CTG method, 72 h); type: cell-based; conditions: Homo sapiens, MV4-11, 72 hours incubation, CellTiter-Glo
Excerpt: • 1. Experimental Principle: MV-4-11 is a human leukemia cell line harboring MLL translocation and expressing the MLL fusion protein MLL-AF4. […] Experimental Materials: CellTiter-Glo was purchased from Promega (Cat. #G7571); IMDM medium was purchased from Gibco (Cat. #12440061); fetal bovine serum was purchased from Excell (Cat. #FND500); dimethyl sulfoxide (DMSO) was purchased from Sigma (Cat. #D2650); 384-well cell culture plates were purchased from Corning (Cat. #3756); automated cell counter was obtained from Life Technologies (Model: Countess II); microplate reader was obtained from PerkinElmer (Model: EnVision Multilabel Reader). • 3. Experimental Methods: Cells in logarithmic growth phase were resuspended in growth medium (IMDM + 10% FBS) and diluted to the target density (50,000/mL). The cell suspension was seeded into 384-well plates at 50 µL per well and incubated overnight at 37°C in a 5% CO2 incubator.
Test compounds were dissolved in DMSO to prepare 10 mM stock solutions. The stock solutions were first diluted to 2 mmol/L with DMSO, followed by 3-fold serial dilutions to generate 10 concentrations. From each concentration, 5.5 µL was diluted with 94.5 µL growth medium. The diluted solutions were then added to the 384-well plates containing seeded cells at 5 µL per well.
Cells treated with test compounds were incubated at 37°C in a 5% CO2 incubator for 72 hours. The 384-well plates were equilibrated at room temperature, and 15 µL of CellTiter-Glo reagent was added to each well. The plates were mixed on a vortex mixer for 2 minutes and incubated at room temperature for 60 minutes. Luminescence values were read using the EnVision Multilabel Reader, and IC50 values were calculated using GraphPad Prism 5.0 software.

[2] = system: OCI-AML-3 cells; assay: Antiproliferative activity, CellTiter-Glo, 7 days (Test Example 2), OCI-AML-3; type: cell-based; conditions: Homo sapiens, 168 h, 7 days incubation, read-out: OCI-AML3 IC50
Excerpt: [0134] 1. Experimental Principle: MV-4-11, Molm-13, and OCI-AML-3 cells are human hematologic tumor cell lines harboring the Menin-MLL fusion. HL-60 is a wild-type human hematologic tumor cell line without Menin-MLL fusion. […] 2. Experimental Materials: MV-4-11, Molm-13, OCI-AML-3, and HL-60 cells were all purchased from Cobioer; CellTiter-Glo® was purchased from Promega (Cat. #G7571); RPMI-1640 was purchased from Viva Cell (Cat. #C3010-0500); IMDM was purchased from Viva Cell (Cat. #C3040-0500); fetal bovine serum (FBS) was purchased from Biosera (Cat. #FB-1058/500); penicillin-streptomycin was purchased from BasalMedia (Cat. #S110JV); 0.25% Trypsin-EDTA was purchased from BasalMedia (Cat. #S310KJ); dimethyl sulfoxide (DMSO) was purchased from Sinopharm (Cat. #30072418); 96-well plates were purchased from Corning (Cat. #3610); incubator was obtained from PHCbi (Model: MCO-18AC); inverted microscope was obtained from Mingmei (Cat. #MI52-0); automated cell counter was obtained from BodBoge (Model: JSY-SC-031N); microplate reader was obtained from PerkinElmer (Model: Envision); data processing software: GraphPad Prism 8.0. 3. […] After incubation at room temperature for 10 minutes, luminescence values were read using the EnVision microplate reader, and IC50 values were calculated using GraphPad Prism 8.0 software. […]

[3] = system: MV-4-11 subcutaneous tumor xenograft; assay: In vivo efficacy in subcutaneous MV-4-11 tumor xenograft model; design: species or system female NOD/SCID mice; conditions: oral gavage once daily, tumor volume, Figure 1
Excerpt: • 1. Objective: To evaluate the in vivo efficacy of test compounds in a subcutaneous MV-4-11 tumor xenograft model in female NOD/SCID mice. • 2. Experimental Materials: The test compound was Compound 3 prepared according to the examples of the present invention; the positive control compound SNDX-5613 was purchased from Chengdu Zhihui Zhongxin Biomedical Co., Ltd.; MV-4-11 cells were purchased from Nanjing Cobioer; NOD/SCID mice were purchased from Beijing Vital River Laboratory Animal Technology Co., Ltd. • 3. Experimental Methods: Female NOD/SCID mice, 6-8 weeks of age, weighing 16-22 g, were used. MV-4-11 cells were cultured in IMDM medium supplemented with 20% fetal bovine serum. Cells in exponential growth phase were harvested, resuspended in phosphate-buffered saline, and prepared as a cell suspension at a density of 1 × 10^7 cells/0.1 mL. Cells were subcutaneously inoculated into the right dorsal neck region of each mouse (1 × 10^7 cells/mouse) with 50% Matrigel. When the mean tumor volume reached approximately 50-100 mm^3, mice were randomized and treatment was initiated by oral gavage administration once daily. Tumor diameters were measured twice weekly using digital calipers. Tumor volume was calculated using the formula: V = 0.5 × a × b^2, where a and b represent the longest and shortest tumor diameters, respectively.

## CCN(C(=O)c1cc(F)ccc1N1CCN([C@@H]2CCN([C@H](CCCN(C)CCOC)C(C)C)C2)c2ncncc21)C(C)C [Example 3]
[1]
  IC50: 22.9 nM
[2]
  IC50: 103 nM
[3]
  efficacy in MV-4-11 subcutaneous tumor xenograft model: superior efficacy compared to the positive control SNDX-5613
